# Assay results as given in US5162302A, “Endocrine manipulation to improve body composition of poultry” (University of Delaware, priority 1990, dated 1992).
# Read-outs that look alike come from different tables or passages of the source.
# B1: pGH: purified porcine growth hormone (protein, UniProt P01248 27-216, looked up)
# Somatotropin: FPAMPLSSLFANAVLRAQHLHQLAADTYKEFERAYIPEGQRYSIQNAQAAFCFSETIPAPTGKDEAQQRSDVELLRFSLLLIQSWLGPVQFLSRVFTNSLVFGTSDRVYEKLKDLEEGIQALMRELEDGSPRAGQILKQTYDKFDTNLRSDDALLKNYGLLSCFKKDLHKAETYLRVMKCRRFVESSCAF
# B2: GH: growth hormone (e.g. ncGH, natural chicken GH) (protein, UniProt P08998 26-216, looked up)
# Somatotropin: TFPAMPLSNLFANAVLRAQHLHLLAAETYKEFERTYIPEDQRYTNKNSQAAFCYSETIPAPTGKDDAQQKSDMELLRFSLVLIQSWLTPVQYLSKVFTNNLVFGTSDRVFEKLKDLEEGIQALMRELEDRSPRGPQLLRPTYDKFDIHLRNEDALLKNYGLLSCFKKDLHKVETYLKVMKCRRFGESNCTI
# Experiments:
# [1] = Protein:fat ratio of broiler chickens under hormone treatments; type: in vivo; conditions: at the doses tested
# [2] = induced hypothyroid state; cited from earlier work
# [3] = Three daily intramuscular injections of GRF and dietary T3: growth, feed efficiency, body composition (Example 1); type: in vivo, broiler chickens
# Method: Bird management. One day-old broiler cockerels (Ross x Arbor acre) were obtained from a commercial hatchery (Perdue Hatchery, Salisburg, MD). Five birds were randomly assigned to each of 24 pens during the first three weeks. Birds were housed in a Petersime battery-brooder and maintained in a environmentally controlled room on a 20L:4D light/dark cycle. The temperature was held at 33° C. for the first week and reduced 3° C. at weekly intervals. During this period, the chicks were provided with commercial starter ration (3100 kcal ME/kg and 22% crude protein) and water ad libitum.
# At 3 weeks-of-age, four birds per pen were moved to wire cages. From 3 to 4 weeks of age, birds were fed a commercial broiler grower/finisher ration containing 19% crude protein and 3200 kcal metabolizable energy/kg. At 4 weeks of age, birds were fed a special high-protein ration that contained 25% crude protein and 3250 kcal ME/kg feed (See Table 1). […] During the experimental period (5 to 7 weeks of age), individual body weights and feed consumption were determined at weekly intervals for calculation of average daily gain (ADG), average daily feed consumption (ADFC) and gain-to-feed ratio (GTF).
# Hormone treatments. […] Synthetic human pancreatic growth releasing factor (hpGRF1-44) was obtained from Pitman-Moore, Inc. (Terre Haute, IN). […] Begining at 35 days of age, broiler cockerels were given three daily intramuscular injections of buffer (0.05M sodium acetate, pH 5.0) or GRF dissolved in buffer (10 μg/kg body weight) each day at 0800, 1600, and 2400 hr. Each bird was weighed a 3 day intervals to adjust GRF dosage.
# At 49 days of age, chickens were starved for 24 hours and killed for determination of final body, abdominal fat pad, and liver weights. Carcasses from one-half of the birds in each pen (2 birds/pen) were frozen for determination of body composition by proximate analysis. Each frozen carcass, including the liver and abdominal fat, was ground twice in meat grinder fitted with a one-quarter inch dye (Biro Model 5, Biro Mfg. Co., Marblehead, OH). Aliquots of the ground meat were dried at 80° C. for moisture determination. Dried samples were analyzed for protein by macro-Kjeldahl, fat by ether extraction, and ash contents according to established analytical procedures. Body composition data are presented as a percent of final body weight at 7 weeks of age.
# Statistical analyses. All data were analyzed with the pen as the experimental unit since dietary treatments were applied to the pen and feed consumption was determined for each pen. Least squares regression analysis was used to test for effects of treatments on ADG, ADFC, GTF, body weight and body composition. Significant differences (P<0.05) among treatments were determined by Fisher's least significant difference test.
# [4] = Three daily intravenous injections of GRF and dietary T3: growth, feed efficiency, body composition (Example 2); type: in vivo, broiler chickens
# Text: Bird management. Day-old broiler cockerels (Ross X Arbor Acre strain) were obtained from a commercial hatchery (Longnecker Hatchery, Elizabethtown, PA) and randomly assigned in groups of four birds to pens in a heated-battery brooder. Chicks were provided with a commercial broiler-starter ration (Pennfield Corp., Lancaster, PA), containing 3100 kcal metabolizable energy/kg feed and 23% crude protein, and water ad libitum. At 3 weeks of age, birds were transferred to wire pens held in a controlled-environment room. From 3 to 7 weeks of age, birds were maintained under a 20L:4D light-dark cycle at 21° C. and continuously provided with water and a commercial broiler-finisher ration containing 3250 kcal metabolizable energy/kg feed and 20% crude protein. Broiler cockerels were given three daily intravenous injections of either buffer (0.1M phosphate buffer, pH 7.0; BC) or GRF dissloved in buffer (25 μg/kg body weight) at 0800, 1600, and 2400 hr.
# Dietary T3 and GRF Treatments. Four treatments were randomly assigned to pens in a randomized-complete-block design with three replicate pens per treatment. […] All birds were weighted at three day intervals to adjust the daily GRF dosage. Recombinant-derived human growth hormone-releasing factor (rhGRF1-44) was obtained from Pitman-Moore, Inc. (Terre Haute, IN).
# The average daily gain (ADG), average daily feed consuption (ADFC) and the gain-to-feed ratio (GTF) were determined for the two week period (5 to 7 weeks of age). At the end of the experiment (7 weeks of age), each bird was killed to obtain the final body, abdominal fat and liver weights. Carcasses were frozen for determination of body composition as described in Example 1.
# Statistical analyses. A randomized-complete-block design was used in which the four treatments were replicated in three pens. The growth data were analyzed with the pen as the experimental unit, since feed comsumption was determined for each pen of four birds. Significant differences (P≤0.05) due to the main effect of treatment were determined by Fisher's Least Significant Difference test.
# [5] = 0.25 to 1 ppm in diet throughout the entire growth cycle; cited from earlier work
# [6] = Dietary T3 in finishing feed, dose-response: plasma T3, muscle protein turnover, fat, growth, hormones
# [7] = TRH 1 or 10 μg/kg/day, GRF 10 μg/kg/day i.v., 21 days, cited from earlier work
# [8] = 1 to 10 μg TRH/day i.v. from 4 to 6 or 8 weeks-of-age; cited from earlier work
# [9] = finishing pigs, injection; cited from earlier work
# [10] = 5 to 7 weeks of age, T3 0.25 ppm, GRF 10 μg/kg i.m. 3x daily, mean ± SEM of four pens
# [11] = 7 weeks of age, i.m. GRF, four pens (2 birds/pen)
# [12] = 7 weeks of age, i.m. GRF, mean ± SEM of four pens
# [13] = 5 to 7 weeks of age, T3 0.25 ppm, GRF 25 μg/kg i.v. 3x daily, mean ± SEM of three pens
# [14] = 7 weeks of age, i.v. GRF, mean ± SEM of twelve cockerels
# [15] = 7 weeks of age, i.v. GRF, twelve cockerels
# [16] = 0.25 ppm T3, compared to the control group
# [17] = plasma thyroid hormone bioactivity 360-1200% of normal
molecule,measurement,setting,value
CCCc1cc(=O)[nH]c(=S)[nH]1 [propylthiouracil],Effect on protein:fat ratio,[1],decrease
same,Body fat,[2],increased accumulation of body fat
same,Plasma insulin levels,[2],elevated
"N[C@@H](Cc1cc(I)c(Oc2ccc(O)c(I)c2)c(I)c1)C(=O)O [T3, 3,3',5-triiodo-L-thyronine]",ADG (average daily weight gain),"[3]; 5 to 7 weeks of age, T3 0.25 ppm in feed, GRF 10 μg/kg i.m. three times daily, 25% protein ration, mean ± SEM of four pens",76.5 ± 3.0
same,ADFC (average daily feed consumption),[3]; [10],185.1 ± 7.1
same,GTF (gain-to-feed ratio),[3]; [10],0.414 ± 0.01
same,Reduction of total body fat content,"[3]; 7-week-old chickens, compared to the CF+BI group",10%
same,Final body weight BW,"[3]; 7 weeks of age, T3 0.25 ppm, GRF 10 μg/kg i.m. 3x daily, mean ± SEM of four pens",2.75 ± 0.05 kg
same,Body composition: ash,[3]; [11],2.24 ± 0.08 % BW
same,Body composition: fat,[3]; [11],10.0 ± 0.78 % BW
same,Body composition: protein,[3]; [11],17.1 ± 0.26 % BW
same,Body composition: water,[3]; [11],67.6 ± 0.70 % BW
same,Relative weight of abdominal fat pad,[3]; [12],1.12 ± 0.11 % BW
same,Relative weight of liver,[3]; [12],1.99 ± 0.09 % BW
same,Reduction of abdominal fat weight,"[3]; compared to the CF+BC group, P<0.05",31%
same,"Effect on ADG, ADFC or GTF",[3]; dietary T3 or daily i.m. GRF,no effect
same,ADG (average daily weight gain),"[4]; 5 to 7 weeks of age, T3 0.25 ppm in feed, GRF 25 μg/kg i.v. three times daily, mean ± SEM of three pens",70.7 ± 5.3
same,ADFC (average daily feed consumption),[4]; [13],157.0 ± 7.2
same,GTF (gain-to-feed ratio),[4]; [13],0.448 ± 0.021
same,Increase of body water content,"[4]; 7 weeks of age, vs control",2%
same,Reduction of body fat content,"[4]; 7 weeks of age, vs control",10%
same,Final body weight BW,[4]; [14],2.82 ± 0.06 kg
same,Relative weight of abdominal fat,[4]; [14],1.54 ± 0.14 % BW
same,Relative weight of liver,[4]; [14],2.06 ± 0.05 % BW
same,Body composition: ash,[4]; [15],2.45 ± 0.04 % BW
same,Body composition: fat,[4]; [15],11.5 ± 0.64 % BW
same,Body composition: protein,[4]; [15],18.8 ± 0.19 % BW
same,Body composition: water,[4]; [15],67.0 ± 0.50 % BW
same,Reduction of abdominal fat weight,[4]; compared to the CF+BI group,20%
same,"Effect on ADG, ADFC or the GTF ratio","[4]; dietary T3 or daily i.v. GRF alone, or in combination",did not significantly affect
same,Growth performance (body weight gain and feed efficiency),[5],reduced body weight gain and feed efficiency
same,Effect upon weight gain,[6]; 0.1 ppm T3 in finishing feed,no significant adverse effect
same,Increase of protein accretion in breast and leg muscle,[6]; 0.25 ppm T3,45-88%
same,Reduction of abdominal fat weight,[6]; 0.25 ppm T3,22%
same,Increase of FAR of leg muscle,[6]; [16],45%
same,Increase of FAR of pectoralis major (breast muscle),[6]; [16],88%
same,Effect on growth rate,[6]; 0.25 ppm T3 in feed,virtually no statistically significant adverse effect
same,Plasma T3 level,[6]; 0.25 ppm T3 in feed,2.7 ± 0.2 ng/mL
same,Plasma T3 level (control group = 100% of normal),[6]; 0.25 ppm T3 in feed,~ 208%
same,Increase of rate of protein synthesis in the leg muscle,"[6]; 0.25 to 4 ppm of feed, p<0.05",at least 49%
same,Plasma T3 level,[6]; 1 ppm T3 in feed,4.5 ± 0.8 ng/mL
same,Plasma T3 level (control group = 100% of normal),[6]; 1 ppm T3 in feed,~ 346%
same,Effect upon weight gain,[6]; 1 ppm T3 in finishing feed,some deviation from normal weight gain
same,Plasma T3 level,[6]; 4 ppm T3 in feed,16.3 ± 2.6 ng/mL
same,Plasma T3 level (control group = 100% of normal),[6]; 4 ppm T3 in feed,~ 125%
same,Increase of fractional degradation rate of breast muscle,[6]; 4 ppm of T3,116%
same,Increase of fractional synthesis rate (FSR) of the pectoralis major (breast) muscle,"[6]; 4 ppm of T3, p<0.05",56%
same,Fractional Accretion Rate (FAR) in the pectoralis major (breast) muscle,[6]; T3 doses in the 1 to 4 ppm range,affected negatively
same,Plasma GH levels,[6]; dietary T3 during the finishing phase,decrease
same,Glucagon secretion,[6]; dietary T3 treatment alone,increased
same,Insulin secretion,[6]; dietary T3 treatment alone,depresses
same,Protein synthesis rate in breast muscle,[6]; lower doses of T3 (0.25 to 1 ppm),only a slight effect
same,Depression of body weight gain,[6]; [17],≤ 57%
same,Depression of feed consumption,[6]; [17],≤ 35%
"NC(=O)[C@@H]1CCCN1C(=O)[C@H](Cc1c[nH]cn1)NC(=O)[C@@H]1CCC(=O)N1 [TRH, pyro-L-Glu-L-His-L-Pro-NH2]",Effect on protein:fat ratio,[1],decrease
same,Plasma GH levels,[7],elevated
same,Growth rate and feed efficiency,[7]; alone or in combination,failed to stimulate growth rate or improve feed efficiency
same,Growth rate,[8],capable of increasing the growth rate
B1,Improvement of feed conversion,[9],7-19%
same,Increase of growth rate,[9],10-14%
same,Increase of muscle mass,[9],24-36%
same,Reduction of carcass fat content,[9],18-25%
B2,Effect on protein:fat ratio,[1],decrease
